Measured values from US20260240820A1, “METHOD FOR CONTROLLING MEMBRANE POTENTIAL-DEPENDENT ION CHANNEL THROUGH TYPE I TASTE RECEPTORS (T1RS)” (ION CHAT RESEARCH CORPORATE, priority 2022, published 2026).
Entries after “also recorded” stand apart in the source; their conditions may differ. Where two headings read alike, the source gives them in different places.

How the values were obtained:
[1] = system: Nav1.5; assay: Patch-clamp (voltage clamp) recording of VGSC current in HEK cells stably expressing Nav1.5; details: for Effect on VGSC current enhanced by Aβ42/40 (AD-D): applied after Aβ42/40 (AD-D)
[2] = system: Nav1.5 in T1R3-silenced HEK cells; assay: VGSC current in HEK Nav1.5 cells with silenced T1R3; type: cell-based, human; details: for Effect on VGSC current: 20 μM (b565)
Method in brief: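 VGSC currents were recorded in HEK-Nav1.5 cells with T1R3 knocked down by a miRNA expression vector, stimulated every 8 s. The effect of Aβ25-35 peptide was compared with control HEK-Nav1.5 cells.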

[3] = when used for treatment of hypercalcemia; cited from earlier work
[4] = system: VGSC; assay: Patch-clamp recording of VGSC current, cell type not specified or several cell types (summary statements); type: cell-based, human
[5] = system: VGSC of SH-SY5Y cells (Nav1.7, Nav1.2, Nav1.3); assay: Patch-clamp recording of VGSC current in differentiated SH-SY5Y cells; type: cell-based, human; details: 5 μM
Source text: Furthermore, the inventors focused on the relationship between taste receptors, particularly the sweet or umami receptors containing the T1R3 subunit, which are widely expressed in the brain and nervous system, including the hippocampus and cortex. They used human neuroblastoma cells (SH-SY5Y) that functionally express Nav1.2, Nav1.3, and Nav1.7 (as reported in non-patent literature 8), as well as HEK cells stably expressing Nav1.5 (with endogenous expression of T1R1, T1R2, and T1R3). They observed the effects of taste stimuli on sodium channel activation. By reducing the expression of T1R1 and T1R3 genes using silencing vectors, they confirmed that the effects on sodium channel currents induced by taste stimuli act through taste receptor GPCRs.
The SH-SY5Y cell culture medium was prepared by mixing DMEM (Sigma-Aldrich) and F-12 (Sigma-Aldrich) in equal proportions. To induce neuronal-like differentiation, the medium contained 1% FBS (BioWest), 5% 40 mM L-Glutamine (Fuji Film), and 1% MEM non-essential amino acids (Wako Pure Chemical Industries). During differentiation, SH-SY5Y cells were cultured for at least 5 days with the addition of 10 μM/ml retinoic acid (Fuji Film). In this document, “SH-SY5Y cells” refer to the SH-SY5Y cell line differentiated into neuronal-like cells.

[6] = system: SH-SY5Y cells; assay: Action potentials of differentiated SH-SY5Y cells (current clamp, NanoCharge method); type: cell-based, human; details: pH6; current clamp
Procedure: Next, using the current-clamp mode, we applied current stimulation and recorded action potentials from differentiated SH-SY5Y cells (FIG. 5, from the lower to the upper part of the figure, rectangular wave current stimulation was applied. The current strengths were 6, 8, 10, and 12 pA from the bottom). Before the application of Aβ25-35 peptide, action potentials were not induced at stimulation currents of 6 pA and 8 pA, but action potentials were recorded at stronger stimulation currents (10 pA and 12 pA).
By using magnetic conductive nanoparticles as intracellular electrodes for measuring the neuronal action potentials of differentiated SH-SY5Y cells, and combining this with a capacitive potential detection device to measure changes in intracellular potentials, the spontaneous action potentials of these cells were measured. Specifically, 6.25 nM of the T1R3 agonist Aβ25-35 peptide was added to 400 μl of SH-SY5Y cell culture medium, and the spontaneous action potentials before and after the addition of Aβ25-35 peptide were measured to observe the changes.
This membrane potential recording method focuses on the magnetic conductive nanoparticles penetrating the cell membrane, the cover glass on which the cells are seeded, and the electrode placed below the cover glass forming a capacitor. The charge (Q) charged to this capacitor is recorded as the membrane potential in terms of charge rather than voltage changes. Since the charge (Q) is obtained from Q=CV, where C is the capacitance and V is the potential, the charge changes measured here are influenced by the capacitor (C) (FIG. 43).

[7] = system: HEK Nav1.5 cells; assay: GFP-Tubulin / GFP-Actin cytoskeleton observation in HEK Nav1.5 cells; type: cell-based, human
Source text: To observe the impact of cinacalcet and Aβ1-42 peptide on microfilament (actin) fiber structures, we labeled cells with GFP-Actin (FIG. 34). […] This experimental approach, using GFP-Tubulin, GFP-Actin, or other fluorescent proteins to label microtubules and microfilaments, can be used to screen compounds that regulate the activity of ion channels and neuronal function-controlling proteins. Additionally, simultaneous labeling of tubulin and actin can be achieved using fluorescent antibodies or phalloidin after cell fixation.

[8] = system: voltage-dependent potassium channel current of SH-SY5Y cells; assay: Voltage clamp recording of outward potassium current in SH-SY5Y cells; type: cell-based, human; details: 5 μM
Source text: The inward current represents the transient peak observed immediately after stimulation, while the outward current measures the average value during the last 50 ms of rectangular pulse stimulation.

[9] = system: SH-SY5Y cells; assay: Cell morphology observation, SH-SY5Y cells; type: cell-based, human; details: neuron-like differentiated SH-SY5Y cells
[10] = system: HEK cells; assay: Cell morphology observation (bright-field), HEK cells; type: cell-based, human
Source text: (§1) In a previous implementation example (FIG. 54), it was shown that Aβ peptides and artificial sweeteners cause depolymerization of the cytoskeleton. […] To easily compare and confirm the morphological changes before and after the application of Aβ1-40, the areas of interest were circled with dashed lines. Observations were made using bright-field microscopy. Images were captured with a camera (UI-3880CP-M) from IDS mounted on the microscope, and the images were imported to a PC using the software that came with the camera. Further image processing was done using ImageJ (Rasband, 1997-2018).
The solution (HHBS*) was adjusted to achieve the final concentration values shown in Table 11 for Aβ42/40, and the changes in cell morphology were observed. Indicators included cell body contraction, extension, or the presence of lamellipodia ruffling around the cell periphery.

[11] = system: VGSC of NG108-15 cells; assay: Whole-cell patch-clamp of VGSC current in differentiated NG108-15 cells; type: cell-based, mouse/rat; details: subsequent application
Source text: Specifically, we used mouse/rat hybridoma cells NG108-15 differentiated into neuronal-like cells using forskolin and low-concentration FBS treatment, along with human-derived cells expressing human Nav1.5. We recorded VGSC currents using the whole-cell patch-clamp method and observed the effects of Aβ peptides (FIG. 58A-1, B). The term “Aβ peptides” here refers to a mixture of Aβ40 and Aβ42. We used two types of mixtures similar to those used in the experiments on cell morphology and lamellipodia dynamics. One mixture corresponds to the Aβ42/40 ratio observed in cerebrospinal fluid from healthy individuals (NDC: non-demented control), and the other corresponds to the ratio observed in cerebrospinal fluid from Alzheimer's disease patients with cognitive impairment (AD-D).

[12] = system: Nav1.6; assay: Patch-clamp recording of VGSC current in HEK (Nav1.6) cells; type: cell-based, human
Source text: The cells used in the previous (18-1) experiment were cardiac-type VGSC cells. In this experiment, HEK (Nav1.1) and HEK (Nav1.6) cells, which are considered neuronal VGSC cells, were created. The effects of four peptides—Aβ25-35, Aβ1-38, Aβ1-40, and Aβ1-42—were examined using the same experimental protocol as in (18-1). […]

[13] = system: T1R3 inherent in HEK cells; assay: Impedance of HEK Nav1.5 cell sheet; type: cell-based, human
Procedure: Specifically, cells were cultured on a conductive glass (FTO glass, thickness 2.2 mm) electrode plate to form a sheet, and the change in impedance value of the cell sheet was measured by applying current stimulation between the conductive glass covered with cells and the extracellular solution. The measurement experiment was conducted using the voltage-clamp method. A voltage pulse of 1 mV (1 Hz, 220 ms width) was applied between the silver chloride electrode placed in the extracellular solution and the electrode plate, and the change caused by the amyloid peptide was measured as a change in current (I).
By measuring the current response (I) occurring there, the resistance ® of the entire cell sheet to the applied voltage (1 mV) can be calculated from Ohm's law (V=IR>R=V/I). As shown in (FIG. 46), it was confirmed that the T1R3 antibody inhibits the effect of Aβ1-40 peptide.

[14] = system: HUEhT-1 cells; assay: Cell morphology observation, HUEhT-1 umbilical vein endothelial cells; type: cell-based, human; details: Aβ1-40 at 12.5 nM
Source text: as §1

[15] = system: Nav1.1; assay: Patch-clamp recording of VGSC current in HEK (Nav1.1) cells; type: cell-based, human
Source text: The cells used in the previous (18-1) experiment were cardiac-type VGSC cells. In this experiment, HEK (Nav1.1) and HEK (Nav1.6) cells, which are considered neuronal VGSC cells, were created. The effects of four peptides—Aβ25-35, Aβ1-38, Aβ1-40, and Aβ1-42—were examined using the same experimental protocol as in (18-1).

[16] = system: endogenous T1R GPCR of HEK cells; assay: Intracellular calcium (Cal-520) in HEK cells stably expressing Nav1.1 with endogenous T1R GPCR; type: cell-based, human; details: 10 nM then 20 nM for Aβ1-40 and Aβ1-42
Procedure: Specifically, experiments were conducted as follows using HEK cells stably expressing Nav1.1 (FIG. 45). The calcium-sensitive reagent (Cal-520, AAT Bioquest) was incubated at 37° C. for 60 minutes, followed by incubation at room temperature for 30 minutes, and then changes in intracellular calcium were measured using a fluorescence microscope. […] Initially, 10 nM, followed by 20 nM of Aβ1-40 was applied after 5 minutes (arrow). […] A total of 6 cell groups from two independent experiments were measured, averaged by the maximum fluorescence response value, and the mean and standard error (stderr) were calculated and plotted. […] 10 nM, followed by 20 nM of Aβ1-42 was applied after 5 minutes (arrow). […] A total of 12 cell groups from two independent experiments were measured, averaged by the minimum fluorescence response value, and the mean and standard error (stderr) were calculated and plotted. Similar to the experimental results using the patch-clamp method when Aβ peptide was applied to Nav1.5, it was confirmed from intracellular calcium measurements that the effects of Aβ1-40 and Aβ1-42 were different.

C[C@@H](NCCCc1cccc(C(F)(F)F)c1)c1cccc2ccccc12 [Cinacalcet]
Effect on VGSC (Na+) current under acidic conditions ([1]; 5 μM, pH 6): gradually inhibited; also recorded: exhibited VGSC inhibition
Effect on VGSC currents ([1]; 20 μM, control HEK Nav1.5 cells): completely inhibits VGSC currents
Effect on leak (baseline) current ([1]; when VGSC inhibition nearly complete): reduced leak currents
Effect on VGSC current [2]: no change in VGSC current was observed
Effect on VGSC current ([2]; listed as cinacalcet): no observable effect
Effect on VGSC in T1R3-silenced cells ([2]; listed as cinacalcet): no VGSC inhibitory effect was observed; also recorded: T1R3 silencing nullifies ab25-35's
Plasma concentration [3]: 0.05 µM
Effects on VGSCs [4]: Inhibition of VGSCs
Effect on VGSC activity ([4]; 5 μM): completely inhibits VGSC activity
Inhibitory effect on VGSC when tubulin polymerization is inhibited by Colchicine ([4]; Colchicine treated cells): still inhibited VGSC currents
Inhibitory effect on VGSC when actin polymerization is inhibited by Cytochalasin D ([4]; Cytochalasin D treated cells): inhibited by cytochalasin D treatment
Required concentration for VGSC inhibition ([4]; HEK Nav1.5 and SH-SY5Y): 5 µM
Effects on VGSCs ([4]; listed as cinacalcet): inhibited human VGSC
Effect on inward VGSC current [5]: inhibited
Effect on inward VGSC current ([5]; listed as cinacalcet): complete inhibition of both currents
Effect on VGSC-dependent action potentials under acidic conditions [6]: inhibited VGSC-dependent action potentials
Microfilament structure (GFP-Actin) [7]: condensed GFP-Actin structures
Effect on outward potassium current [8]: inhibited
Effect on outward potassium current ([8]; listed as cinacalcet): complete inhibition of both currents

NCCC(=O)O [β-alanine]
Effect on VGSC current enhanced by Aβ42/40 (AD-D) [1]: reversed; also recorded: reverse the enhancement of VGSC current; also recorded: nearly returned to the control level
Effect on VGSC current enhanced by Aβ42/40 (AD-D) ([1]; listed as D-alanine): nearly restoring it to control levels
Lamellipodia activity [9]: enhances lamellipodia activity
Effect on cell motility ([10]; 5 μM): promotes cell motility
Effect on cells contracted and inactive due to Aβ AD ([10]; HEK cells, data not shown): induces activity in cells
Effect on VGSC current after Aβ42/40 (AD-D) [11]: did not cause any further changes

Aβ1-40: amyloid β peptide, Sequence No. 3
Effect on VGSC current amplitude [1]: reduced VGSC currents for both prepulse potentials
Shift of steady-state inactivation (S-S) curve of VGSC [1]: to the left; also recorded: more towards the hyperpolarizing direction
Effect on VGSC in T1R3-silenced cells [2]: is lost
Effect on VGSC current [12]: VGSC enhancement
Change of impedance of cell sheet [13]: decrease in impedance
Change in cell morphology [14]: a decrease in cell area/volume
Change in cell morphology ([14]; listed as Aβ40): significant cell body contraction (atrophy)
Change in cell morphology ([10]; Aβ1-40 at 12.5 nM): a decrease in cell area/volume
Effect on VGSC current [15]: VGSC enhancement
Change in intracellular calcium [16]: increased intracellular calcium levels; also recorded: continued to slowly increase
